Consider 24 compounds from patent US10227323B2, “Glucosylceramide synthase inhibitors for the treatment of diseases” (BIOMARIN PHARMACEUTICAL INC., priority 2013, dated 2019).

This experiment has as its target T1, GCS (Canis lupus familiaris, UniProt A0A8I3MXG6).
T1 sequence (A0A8I3MXG6 1-394): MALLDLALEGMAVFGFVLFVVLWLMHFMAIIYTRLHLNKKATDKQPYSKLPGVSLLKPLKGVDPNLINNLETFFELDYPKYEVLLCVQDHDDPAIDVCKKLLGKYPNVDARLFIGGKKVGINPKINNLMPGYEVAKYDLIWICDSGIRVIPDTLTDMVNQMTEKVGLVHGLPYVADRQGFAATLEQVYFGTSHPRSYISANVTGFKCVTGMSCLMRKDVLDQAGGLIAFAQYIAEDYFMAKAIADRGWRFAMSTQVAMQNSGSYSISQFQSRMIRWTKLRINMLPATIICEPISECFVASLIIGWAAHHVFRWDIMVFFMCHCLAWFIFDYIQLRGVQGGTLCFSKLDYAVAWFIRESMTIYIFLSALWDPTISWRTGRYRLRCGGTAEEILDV
Briefly: Assay 1: GCS Enzymatic Assay (MDCK cell lysate, C6-NBD-Ceramide, LC/MS). The experiment is classed as biochemical, canine. The following applies: Table 2; data without asterisk; read-out: IC50 (nM) generated from Assay 1. Summed up:
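LC/MS/MS measurement of glucosylceramide and NBD-ceramide after a 1 h, 37 °C reaction with 100 μM UDP-glucose and 10 μM C6-NBD-ceramide gave IC50s or percent inhibition.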

As to `O=C(N[C@H](CN1CCCC1)[C@H](O)c1cc(F)c2c(c1)OCCO2)C(=O)c1cc2ccc(Cl)cc2s1` [Example 308, 2-(6-chlorobenzo[b]thiophen-2-yl)-N-((1R,2R)-1-(8-fluoro-2,3-dihydrobenzo[b][1,4]dioxin-6-yl)-1-hydroxy-3-(pyrrolidin-1-yl)propan-2-yl)-2-oxoacetamide], the IC50 (as a rule, the concentration that gives 50% inhibition) is less than 50 nM. The same measure for `O=C(N[C@H](CN1CCCC1)[C@H](O)c1ccc(OC2CCCC2)c(Cl)c1)C(=O)c1ccc(-c2ccc(F)cc2)cc1` [Example 309, N-((1R,2R)-1-(3-chloro-4-(cyclopentyloxy)phenyl)-1-hydroxy-3-(pyrrolidin-1-yl)propan-2-yl)-2-(4′-fluoro-[1,1′-biphenyl]-4-yl)-2-oxoacetamide]: less than 50 nM. On to `Cc1c2cc(-c3ccc(C(=O)C(=O)N[C@H](CN4CCCC4)[C@H](O)c4ccc(OC5CC5)c(Cl)c4)cc3)ccc2nn1C(C)C` [Example 310, N-((1R,2R)-1-(3-chloro-4-cyclopropoxyphenyl)-1-hydroxy-3-(pyrrolidin-1-yl)propan-2-yl)-2-(4-(2-isopropyl-3-methyl-2H-indazol-5-yl)phenyl)-2-oxoacetamide], for which the IC50 was less than 50 nM.

Take `CC(C)n1cc2cc(C(=O)C(=O)N[C@H](CN3CCCC3)[C@H](O)c3ccc(OC4CC4)c(Cl)c3)ccc2n1` [Example 311, N-((1R,2R)-1-(3-chloro-4-cyclopropoxyphenyl)-1-hydroxy-3-(pyrrolidin-1-yl)propan-2-yl)-2-(2-isopropyl-2H-indazol-5-yl)-2-oxoacetamide]: the IC50 was less than 50 nM.

Take `CC(C)n1cc2ccc(C(=O)C(=O)N[C@H](CN3CCCC3)[C@H](O)c3cc(F)c4c(c3)OCCO4)cc2n1` [Example 312, N-((1R,2R)-1-(8-fluoro-2,3-dihydrobenzo[b][1,4]dioxin-6-yl)-1-hydroxy-3-(pyrrolidin-1-yl)propan-2-yl)-2-(2-isopropyl-2H-indazol-6-yl)-2-oxoacetamide]: the IC50 is less than 50 nM. The figure for `O=C(N[C@H](CN1CCCC1)[C@H](O)c1ccc(OC2CCC2)c(Cl)c1)C(=O)c1ccc(-c2ccc(F)cc2)cc1` [Example 313, N-((1R,2R)-1-(3-chloro-4-cyclobutoxyphenyl)-1-hydroxy-3-(pyrrolidin-1-yl)propan-2-yl)-2-(4′-fluoro-[1,1′-biphenyl]-4-yl)-2-oxoacetamide] is less than 50 nM; for `Cc1nn(C(C)C)c2ccc(-c3ccc(C(=O)C(=O)N[C@H](CN4CCCC4)[C@H](O)c4ccc(OC5CC5)c(Cl)c4)cc3)cc12` [Example 314, N-((1R,2R)-1-(3-chloro-4-cyclopropoxyphenyl)-1-hydroxy-3-(pyrrolidin-1-yl)propan-2-yl)-2-(4-(1-isopropyl-3-methyl-1H-indazol-5-yl)phenyl)-2-oxoacetamide] it is less than 50 nM.

Take `Cc1cc(F)ccc1-c1ccc(C(=O)C(=O)N[C@H](CN2CCCC2)[C@H](O)c2cc(F)c3c(c2)OCCO3)cc1` [Example 315, 2-(4′-fluoro-2′-methyl-[1,1′-biphenyl]-4-yl)-N-((1R,2R)-1-(8-fluoro-2,3-dihydrobenzo[b][1,4]dioxin-6-yl)-1-hydroxy-3-(pyrrolidin-1-yl)propan-2-yl)-2-oxoacetamide]: the IC50 was less than 50 nM. The figure for `CC(C)n1cc2ccc(C(=O)C(=O)N[C@H](CN3CCCC3)[C@H](O)c3ccc(OC4CC4)c(Cl)c3)cc2n1` [Example 316, N-((1R,2R)-1-(3-chloro-4-cyclopropoxyphenyl)-1-hydroxy-3-(pyrrolidin-1-yl)propan-2-yl)-2-(2-isopropyl-2H-indazol-6-yl)-2-oxoacetamide] is less than 50 nM. The same measure for `Cc1nn(C(C)C)c2ccc(C(=O)C(=O)N[C@H](CN3CCCC3)[C@H](O)c3ccc(OC4CC4)c(Cl)c3)cc12` [Example 317, N-((1R,2R)-1-(3-chloro-4-cyclopropoxyphenyl)-1-hydroxy-3-(pyrrolidin-1-yl)propan-2-yl)-2-(1-isopropyl-3-methyl-1H-indazol-5-yl)-2-oxoacetamide]: less than 50 nM; for `Cc1nn(C)c2ccc(-c3ccc(C(=O)C(=O)N[C@H](CN4CCCC4)[C@H](O)c4ccc(OC5CC5)c(Cl)c4)cc3)cc12` [Example 318, N-((1R,2R)-1-(3-chloro-4-cyclopropoxyphenyl)-1-hydroxy-3-(pyrrolidin-1-yl)propan-2-yl)-2-(4-(1,3-dimethyl-1H-indazol-5-yl)phenyl)-2-oxoacetamide]: less than 50 nM; for `O=C(N[C@H](CN1CCCC1)[C@H](O)c1ccc2c(c1)OC=CO2)C(=O)c1ccc(-c2ccc(F)cc2)cc1` [Example 319, N-((1R,2R)-1-(benzo[b][1,4]dioxin-6-yl)-1-hydroxy-3-(pyrrolidin-1-yl)propan-2-yl)-2-(4′-fluoro-[1,1′-biphenyl]-4-yl)-2-oxoacetamide]: less than 50 nM. As to `O=C(N[C@H](CN1CCCC1)[C@H](O)c1ccc(SC2CC2)c(Cl)c1)C(=O)c1ccc(-c2ccc(F)cc2)cc1` [Example 320, N-((1R,2R)-1-(3-chloro-4-(cyclopropylthio)phenyl)-1-hydroxy-3-(pyrrolidin-1-yl)propan-2-yl)-2-(4′-fluoro-[1,1′-biphenyl]-4-yl)-2-oxoacetamide], the IC50 is less than 50 nM. Regarding `CC(C)n1ncc2cc(C(=O)C(=O)N[C@H](CN3CCCC3)[C@H](O)c3ccc(OC4CC4)c(Cl)c3)ccc21` [Example 321, N-((1R,2R)-1-(3-chloro-4-cyclopropoxyphenyl)-1-hydroxy-3-(pyrrolidin-1-yl)propan-2-yl)-2-(1-isopropyl-1H-indazol-5-yl)-2-oxoacetamide], the IC50 is less than 50 nM. In the case of `Cc1nn(C)c2ccc(-c3ccc(C(=O)C(=O)N[C@H](CN4CCCC4)[C@H](O)c4cc(F)c5c(c4)OCCO5)cc3)cc12` [Example 322, 2-(4-(1,3-dimethyl-1H-indazol-5-yl)phenyl)-N-((1R,2R)-1-(8-fluoro-2,3-dihydrobenzo[b][1,4]dioxin-6-yl)-1-hydroxy-3-(pyrrolidin-1-yl)propan-2-yl)-2-oxoacetamide], the 50% inhibitory concentration (IC50) was less than 50 nM. The figure for `CC(C)n1ccc2cc(C(=O)C(=O)N[C@H](CN3CCCC3)[C@H](O)c3cc(F)c4c(c3)OCCO4)ccc21` [Example 323, N-((1R,2R)-1-(8-fluoro-2,3-dihydrobenzo[b][1,4]dioxin-6-yl)-1-hydroxy-3-(pyrrolidin-1-yl)propan-2-yl)-2-(1-isopropyl-1H-indo1-5-yl)-2-oxoacetamide] is less than 50 nM; for `CC(C)n1ccc2cc(C(=O)C(=O)N[C@H](CN3CCCC3)[C@H](O)c3ccc(OC4CC4)c(Cl)c3)ccc21` [Example 324, N-((1R,2R)-1-(3-chloro-4-cyclopropoxyphenyl)-1-hydroxy-3-(pyrrolidin-1-yl)propan-2-yl)-2-(1-isopropyl-1H-indo1-5-yl)-2-oxoacetamide] it is less than 50 nM. The figure for `O=C(N[C@H](CN1CCCC1)[C@H](O)c1cc(F)c2c(c1)OCCO2)C(=O)c1ccc(N2CCOCC2)cc1` [Example 325, N-((1R,2R)-1-(8-fluoro-2,3-dihydrobenzo[b][1,4]dioxin-6-yl)-1-hydroxy-3-(pyrrolidin-1-yl)propan-2-yl)-2-(4-morpholinophenyl)-2-oxoacetamide] is less than 50 nM; for `O=C(N[C@@H](Cc1ccc(OC2CC2)c(Cl)c1)CN1CCCC1)C(=O)c1ccc(-c2ccc(F)cc2)cc1` [Example 326, (S)-N-(1-(3-chloro-4-cyclopropoxyphenyl)-3-(pyrrolidin-1-yl)propan-2-yl)-2-(4′-fluoro-[1,1′-biphenyl]-4-yl)-2-oxoacetamide] it is 50 to 5000 nM; for `O=C(N[C@H](CN1CCC1)[C@H](O)c1ccc(OC2CC2)c(Cl)c1)C(=O)c1ccc(N2CCCC2)cc1` [Example 327, N-((1R,2R)-3-(azetidin-1-yl)-1-(3-chloro-4-cyclopropoxyphenyl)-1-hydroxypropan-2-yl)-2-oxo-2-(4-(pyrrolidin-1-yl)phenyl)acetamide] it is less than 50 nM. Consider `O=C(N[C@H](CN1CCCC1)[C@H](O)c1ccc(OC2CC2)c(Cl)c1)C(F)(F)CCc1ccc2cc(Cl)ccc2c1` [Example 328, N-((1R,2R)-1-(3-chloro-4-cyclopropoxyphenyl)-1-hydroxy-3-(pyrrolidin-1-yl)propan-2-yl)-4-(6-chloronaphthalen-2-yl)-2,2-difluorobutanamide], for which the IC50 is less than 50 nM. For the compound `C=COc1ccc([C@@H](O)[C@@H](CN2CCCC2)NC(=O)C(=O)c2ccc(-c3ccc(F)cc3)cc2)cc1Cl` [Example 329, N-((1R,2R)-1-(3-chloro-4-(vinyloxy)phenyl)-1-hydroxy-3-(pyrrolidin-1-yl)propan-2-yl)-2-(4′-fluoro-[1,1′-biphenyl]-4-yl)-2-oxoacetamide], the IC50 was less than 50 nM.

As for `CC(C)n1cc(-c2ccc(C(=O)C(=O)N[C@H](CN3CCCC3)[C@H](O)c3cc(F)c4c(c3)OCCO4)cc2)cn1` [Example 330, N-((1R,2R)-1-(8-fluoro-2,3-dihydrobenzo[b][1,4]dioxin-6-yl)-1-hydroxy-3-(pyrrolidin-1-yl)propan-2-yl)-2-(4-(1-isopropyl-1H-pyrazol-4-yl)phenyl)-2-oxoacetamide], the IC50 was less than 50 nM. Turning to `CC(C)n1ccc2ccc(C(=O)C(=O)N[C@H](CN3CCCC3)[C@H](O)c3cc(F)c4c(c3)OCCO4)cc21` [Example 331, N-((1R,2R)-1-(8-fluoro-2,3-dihydrobenzo[b][1,4]dioxin-6-yl)-1-hydroxy-3-(pyrrolidin-1-yl)propan-2-yl)-2-(1-isopropyl-1H-indo1-6-yl)-2-oxoacetamide], the IC50 was less than 50 nM.
